# In patent US20060078598A1, “Animal feed containing an encapsulated ingredient” (CAN Technologies, Inc., priority 2002, published 2006):
# Like-named read-outs stand apart in the source and are kept apart here.
# How the values were obtained:
# [1] = deionized water
# Description: Equal levels of each sample (circa 1.0 wt. % of methionine based on total feed weight) were introduced into a feed formula that was placed in a vessel and exposed to deionized water for an hour.
# [2] = feed formula with circa 1.0 wt. % sample, contacted with deionized water
# Description: Equal levels of each sample (circa 1.0 wt. % based on total feed weight) were introduced into a feed formula that was placed in a vessel and contacted with deionized water.
structure (smiles),measurement,setting,value
"CSCC[C@H](N)C(=O)O [Uncoated methionine, methionine]",percent loss of methionine,[1]; after about 1 minute,about 15 wt. %
same,percent loss of methionine,[1]; after about 5 minutes,about 22 wt. %
same,percent loss of methionine,[1]; after about 15 minutes,about 30 wt. %
same,percent loss of methionine,[1]; after about 60 minutes,about 43 wt. %
same,LEACHING LOSS AFTER 30 MINUTES,[2],40%
